Laboratory results reported in patent publication US20230190852A1, “COMPOSITIONS AND METHODS FOR JOINT HEALTH” (Unigen, Inc., priority 2013, published 2023).

Columns and labels:
BKB1 receptor = target: T1, BKB1 receptor (Homo sapiens, UniProt P46663); assay: Bradykinin B1 (BKB1) radioligand binding assay
T1 construct: Membranes from human IMR-90 lung fibroblasts, stimulated with IL-1β; endogenous in cells; host or cells: human IMR-90 lung fibroblasts, IL-1β stimulated (membranes)
T1 sequence (P46663 1-353): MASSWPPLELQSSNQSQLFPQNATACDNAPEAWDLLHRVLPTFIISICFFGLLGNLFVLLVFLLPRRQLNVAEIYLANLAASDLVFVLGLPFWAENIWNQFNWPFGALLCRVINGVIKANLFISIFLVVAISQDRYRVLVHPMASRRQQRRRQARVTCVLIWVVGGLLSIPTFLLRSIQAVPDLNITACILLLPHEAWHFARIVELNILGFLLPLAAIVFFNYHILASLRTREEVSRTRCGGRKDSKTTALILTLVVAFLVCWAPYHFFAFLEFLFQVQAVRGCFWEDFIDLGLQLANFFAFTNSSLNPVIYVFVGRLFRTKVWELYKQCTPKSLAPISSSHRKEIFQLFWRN
Protocol: Membranes from human IMR-90 lung fibroblasts, stimulated with IL-1β in modified HEPES buffer (PH=7.4), were incubated with a test sample in the presence of 0.9 nM [^3H](Des-[…])-Kallidin for 60 minutes at room temperature. After incubation, membranes were filtered and washed five times with modified DPBS buffer (pH=7.4). Samples were scintillation counted to determine the amount of specifically bound to the BKB1 receptor containing membrane. […] BKB1 binding assay, as described in Example 17, was used to test curcumin compound isolated from a Curcuma longa extract (Compound 11), as well as commercially available curcumin purchased from Sigma-Aldrich (C1386). Curcumin was tested at final concentrations ranging from 200 μM to 5 nM. Binding curves were plotted by non-linear regression fit (using GraphPad Prizm software). Ki values were computed using Cheng-Prusoff algorithm. In addition, inhibition of BKB2 receptor binding activity by curcumin was examined with methods similar to those described in Example 17 for the BKB1 receptor with some modifications. […] Composition of Assay Buffer: 24 mM TES, pH 6.8, 1 mM 1.10-Phenanthrioline, 0.3% BSA. • 2. Source of BKb2R: CHO-K1 cells expressing recombinant human BKb2R • 3. Ligand: [^3H]-Bradykinin 0.2 nM. • 4. Incubation time: 90 min RT. • 5. Reading: TopCount.

recombinant human BKb2R = target: T2, recombinant human BKb2R (Homo sapiens, UniProt P30411); assay: Bradykinin Radioligand Binding Assay (BKB2); details: manually calculated by Cheng-Prusoff equation; read-out: BKB2 Ki (μg/ml) (converted)
T2 construct: expressed in transfected cells; host or cells: CHO-K1
T2 sequence (P30411 1-391): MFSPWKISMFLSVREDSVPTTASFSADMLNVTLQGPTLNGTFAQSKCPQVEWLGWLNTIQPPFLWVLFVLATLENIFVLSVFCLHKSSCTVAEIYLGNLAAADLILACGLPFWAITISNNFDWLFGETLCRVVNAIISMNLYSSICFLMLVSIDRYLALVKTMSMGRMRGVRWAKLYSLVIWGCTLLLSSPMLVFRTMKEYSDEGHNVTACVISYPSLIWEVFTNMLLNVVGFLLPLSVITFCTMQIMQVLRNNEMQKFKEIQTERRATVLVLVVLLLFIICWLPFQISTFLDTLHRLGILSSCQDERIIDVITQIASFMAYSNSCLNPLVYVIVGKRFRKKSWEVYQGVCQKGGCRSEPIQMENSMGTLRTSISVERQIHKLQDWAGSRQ
Protocol: BKB1 binding assay, as described in Example 17, was used to test curcumin compound isolated from a Curcuma longa extract (Compound 11), as well as commercially available curcumin purchased from Sigma-Aldrich (C1386). Curcumin was tested at final concentrations ranging from 200 μM to 5 nM. Binding curves were plotted by non-linear regression fit (using GraphPad Prizm software). Ki values were computed using Cheng-Prusoff algorithm. In addition, inhibition of BKB2 receptor binding activity by curcumin was examined with methods similar to those described in Example 17 for the BKB1 receptor with some modifications. Bradykinin Radioligand Binding Assay (BKB2) was conducted using a standard assay under the following conditions: • 1. Composition of Assay Buffer: 24 mM TES, pH 6.8, 1 mM 1.10-Phenanthrioline, 0.3% BSA. • 2. Source of BKb2R: CHO-K1 cells expressing recombinant human BKb2R • 3. Ligand: [^3H]-Bradykinin 0.2 nM. • 4. Incubation time: 90 min RT. • 5. Reading: TopCount.
Commercial curcumin (Sigma, C1386) was tested at concentrations ranging from 200 μM to 5 nM. […] Ki was manually calculated by using Cheng-Prusoff equation.

CD-1 mice [1] = assay: Nociceptive behavior model elicited by intraplantar injection of formalin; format: in vivo
Protocol: Mice (n=6 per group) were habituated under inverted Plexiglas observation chamber for 30 minutes to allow them to acclimatize to their surroundings. […] Mice were immediately transferred to their individual observational chamber. […] Mirrors positioned behind the chambers enabled observation of the right hind paw when it was obscured from direct view. […] These behavioral reactions observed for the first five minutes are due to direct action of the irritant on sensory nerve endings where is believed to be as a result of inflammation in the later phase. […] Mice were treated with curcumin (50, 100, 150 or 200 mg/kg) or ibuprofen (200 mg/kg) orally half an hour before intraplantar formalin injection.

Lewis rats = assay: Carrageenan-induced rat paw edema model (paw edema and pain sensitivity); format: in vivo; details: for Pain sensitivity, percent change of vehicle / Paw edema, percent change of vehicle: 166 mg/kg oral 1 hr after carrageenan, female Lewis rats
Protocol: Local inflammation was induced by intraplantar injection of carrageenan λ (Sigma, St. Louis, Mo.; 100 μl of 1% [w/v] in saline) into the plantar surface of right hind paw of sedated rat (with 2.5% isoflurane) at time 0 (T=0) (Gamache et al., J Neurosurg. 65:679, 1986; Guay et al., J. Biol. Chem. 279:24866, 2004; Chou et al., Anesth. Analg. 97:1724, 2003). Rats were acclimated in a procedure room for 20-30 minutes before each measurement was taken. Allodynia was evaluated by measuring responsiveness to the tip of a Randell-Selitto paw pressure test applied perpendicular to the central plantar surface of the right hind paw. A positive response to the applied pressure, noted by sharp withdrawal of the paw, was recorded automatically by an electronic Von Frey Anesthesiometer (2390 series Electrovonfrey, IITC, Woodland Hills, Calif.) (Vivancos et al., Braz. J. Med. Biol. Res. 37:391, 2004). Mechanical allodynia was evaluated before carrageenan inoculation, and thereafter at 1 hr, 2 hr, 4 hr and 6 hr. Paw edema volume was measured with the use of Plethysmometer (IITC, Woodland Hills, Calif.; Model 520) at time 0 (before carrageenan), and then 1 hr, 2 hr, 4 hr, and 6 hr after carrageenan injection. Animals (N=5 per group) were orally gavaged with a positive control ibuprofen (Spectrum Chemical MFG, Gardena, Calif.) (100 or 200 mg/kg); test articles such as: extracts, and combinations of extracts at various doses from 100, 200, 300 to 400 mg/kg and vehicle control (propylene glycol) were given 1 hour after carrageenan inoculation unless specified otherwise.

[2] = system: Rabbit cartilage explants; assay: Ex vivo glycosaminoglycans (GAG) release assay; format: cell-based
Protocol: Articular cartilage from hock joints of rabbits (2.5 kg body weight) was removed immediately after each animal was sacrificed and articular cartilage explants were obtained by following the method described by Sandy et al. (Biochem. Biophy Acta 543:36, 1978). Briefly, after the articular surfaces were surgically exposed under sterile conditions, approximately 200-220 mg articular surfaces per joint were dissected and submerged into complete medium (DMEM, supplemented with heat inactivated 5% FBS; penicillin 100 U/ml; streptomycin 100 ug/ml). They were then rinsed several times with the complete medium and incubated for 1 to 2 days at 37° C. in a humidified 5% CO2/95% air incubator for stabilization. The complete medium was replaced with a basal medium (DMEM, supplemented with heat-inactivated 1% FBS, 10 mM HEPES, and penicillin 100 U/ml streptomycin 100 μg/ml). Approximately 30 mg cartilage pieces (2×3×0.35 mm/piece) were placed in 24-well plates and treated with given concentrations of test agents. After pretreatment for 1 h, 5 ng/ml of rhIL-1α was added to the culture medium and further incubated at 37° C. in a humidified 5% CO2/95% air incubator. The culture medium was collected 24 h later and stored at −20° C. until assay.
The amount of sulphated GAGs (e.g., released from proteoglycans) in the medium at the end of the reaction reflects the amount of articular cartilage degradation, which was determined using the commercially available 1,9-dimethy-methylene blue method according to the instructions of the manufacturer (Blyscan™ assay, Accurate Chemical and Scientific Corp., Westbury, N.Y.).

CD-1 mice [3] = assay: Visceral pain perception model (Writhing's test, acetic acid); format: in vivo
Protocol: Mice (n=6 per group) were habituated under an inverted Plexiglas observation chamber for 30 minutes to allow them to acclimatize to their surroundings. Animals were orally administered treatment articles at different doses, […], or vehicle control (propylene glycol) 30 minutes before intraperitoneal administration of freshly made acetic acid solution (0.7% in 0.9% NaCl) at 10 ml/kg using a 26 gauge needle. The experiment was carried out at room temperature. After the challenge, each animal was placed back into its own individual section of the observation chamber and the number of constrictions of the abdominal muscle together with stretching was counted cumulatively over a period of 30 minutes (Collier et al., Br. J. Pharmacol. Chemother. 32:295, 1968).

Compound: COc1cc(/C=C/C(=O)CC(=O)/C=C/c2ccc(O)c(OC)c2)ccc1O [Curcumin]
- selectivity BKB1 vs BKB2 binding (BKB1 receptor): selective BKB1 antagonist
- Ki (BKB1 receptor; Cheng-Prusoff, read-out: BKB1 Ki (μg/ml) (converted)): 5.9 µM
- Ki (recombinant human BKb2R): 157 µM
- Pain Sensitivity 20-40 Minutes after Formalin Injection % ↓ vs. Vehicle (CD-1 mice [1]; 50 mg/kg oral): 53.1%
- Pain Sensitivity 20-40 Minutes after Formalin Injection % ↓ vs. Vehicle (CD-1 mice [1]; 100 mg/kg oral): 52.5%
- Pain Sensitivity 20-40 Minutes after Formalin Injection % ↓ vs. Vehicle (CD-1 mice [1]; 150 mg/kg oral): 60.3%
- Pain Sensitivity 20-40 Minutes after Formalin Injection % ↓ vs. Vehicle (CD-1 mice [1]; 200 mg/kg oral): 74.6%

Compound: CC(=O)N[C@H]1C(O)O[C@H](CO)[C@@H](O)[C@@H]1O (stereo partly shown) [NAG, N-Acetyl Glucosamine]
- Pain sensitivity, percent change of vehicle (Lewis rats; 1 hr): 8.8%
- Paw edema, percent change of vehicle (Lewis rats; 1 hr): 8.2%
- Pain sensitivity, percent change of vehicle (Lewis rats; 3 hr): 3.6%
- Paw edema, percent change of vehicle (Lewis rats; 3 hr): 15.8%
- Pain sensitivity, percent change of vehicle (Lewis rats; 5 hr): 2.6%
- Paw edema, percent change of vehicle (Lewis rats; 5 hr): 6.2%
- analgesic and anti-inflammatory activity (Lewis rats; oral, rosmarinic acid 200 mg/kg, eriocitrin 100 mg/kg, NAG 166 mg/kg): minimal to no activity in inhibiting pain or inflammation
- activity at 25 µg/mL ([2]; Oryctolagus cuniculus, 24 h, 25 μg/ml, rhIL-1α 5 ng/ml (IL-1α alone = 100)): 95.7%
- activity at 50 µg/mL ([2]; Oryctolagus cuniculus, 24 h, 50 μg/ml, rhIL-1α 5 ng/ml (IL-1α alone = 100)): 99.2%
- activity at 100 µg/mL ([2]; Oryctolagus cuniculus, 24 h, 100 μg/ml, rhIL-1α 5 ng/ml (IL-1α alone = 100)): 87.5%
- activity at 150 µg/mL ([2]; Oryctolagus cuniculus, 24 h, 150 μg/ml, rhIL-1α 5 ng/ml (IL-1α alone = 100)): 81.2%
- protective effect on rhIL-1α-mediated PG degradation / GAG release ([2]; rhIL-1α 5 ng/ml): marginal
- number of abdominal constrictions / behavioral responses in 30 minutes, Mean ± SD (CD-1 mice [3]; 300 mg/kg oral): 91.0 ± 18.7
- Visceral pain sensitivity, behavioral responses, Mean ± SD (CD-1 mice [3]; 300 mg/kg oral 30 min before acetic acid i.p., observed 30 minutes, CD-1 mice): 91.0 ± 18.7
- Visceral pain sensitivity, % inhibition vs vehicle (CD-1 mice [3]; 300 mg/kg oral, vs vehicle, CD-1 mice): 5.4%
